# The source made the active and inactive calls. The rule behind the calls is not given here.
# Key:
# Cannabinoid receptor 1 [1] = biological target: T1, Cannabinoid receptor 1 (Rattus norvegicus, UniProt P20272); experiment: Displacement of [3H]CP-55,940 from rat brain Cb1 receptor
# Cannabinoid receptor 2 [2] = biological target: Cannabinoid receptor 2 (Mus musculus, UniProt P47936); experiment: Displacement of [3H]CP-55,940 from recombinant mouse Cb2 receptor expressed in HEK293 cells; type: cell-based
# Cannabinoid receptor 1 [3] = biological target: T1, Cannabinoid receptor 1; experiment: Agonist activity at recombinant rat Cb1 receptor expressed in HEK293 cells assessed as inhibition of forskolin-stimulated cAMP levels; type: functional, cell-based
# Cannabinoid receptor 2 [4] = biological target: T2, Cannabinoid receptor 2 (Homo sapiens, UniProt P34972); experiment: Agonist activity at recombinant human Cb2 receptor expressed in HEK293 cells assessed as inhibition of forskolin-stimulated cAMP levels relative to CP-55940; type: functional, cell-based
# Cannabinoid receptor 2 [5] = biological target: T2, Cannabinoid receptor 2; experiment: Agonist activity at recombinant human Cb2 receptor expressed in HEK293 cells assessed as inhibition of forskolin-stimulated cAMP levels; type: functional, cell-based
# Cannabinoid receptor 2 [6] = biological target: T2, Cannabinoid receptor 2; experiment: Displacement of [3H]CP-55,940 from recombinant human Cb2 receptor expressed in HEK293 cells; type: cell-based
# [7] = biological target: Cannabinoid receptor 1 (Rattus norvegicus) (UniProt P20272); experiment: Agonist activity at recombinant rat Cb1 receptor expressed in HEK293 cells assessed as inhibition of forskolin-stimulated cAMP levels relative to control; type: functional, cell-based
# [8] = Half life in mouse liver microsomes; type: ADME, microsome
# [9] = AUC in CD1 mouse brain at 10 mg/kg, po; type: ADME, organism-based
# Rattus norvegicus [10] = experiment: Induction of hypothermia in Sprague-Dawley rat assessed as decrease in body temperature at 1 to 10 mg/kg, ip measured after 180 to 360 mins; type: functional, organism-based
# [11] = Ratio of AUC in plasma to brain of CD1 mouse at 2 mg/kg, iv; type: ADME, organism-based; conditions: in vivo
# [12] = Ratio of AUC in plasma to liver of CD1 mouse at 10 mg/kg, po; type: ADME, organism-based; conditions: in vivo
# [13] = AUC in CD1 mouse liver at 2 mg/kg, iv; type: ADME, organism-based
# [14] = AUC in CD1 mouse fat at 2 mg/kg, iv; type: ADME, organism-based, Adipose tissue
# [15] = Ratio of AUC in plasma to kidney of CD1 mouse at 10 mg/kg, po; type: ADME, organism-based; conditions: in vivo
# [16] = Volume of distribution in CD1 mouse at 2 mg/kg, iv; type: ADME, organism-based; conditions: in vivo
# [17] = Ratio of AUC in plasma to liver of CD1 mouse at 2 mg/kg, iv; type: ADME, organism-based; conditions: in vivo
# Rattus norvegicus [18] = experiment: Induction of hypothermia in Sprague-Dawley rat assessed as decrease in body temperature at 1 mg/kg, ip measured after 24 hrs; type: functional, organism-based
# [19] = AUC in CD1 mouse kidney at 10 mg/kg, po; type: ADME, organism-based
# [20] = AUC in CD1 mouse liver at 10 mg/kg, po; type: ADME, organism-based
# [21] = AUC in CD1 mouse plasma at 10 mg/kg, po; type: ADME, organism-based
# [22] = Half life in rat plasma; type: ADME, cell-free
# [23] = Ratio of AUC in plasma to fat of CD1 mouse at 2 mg/kg, iv; type: ADME, organism-based, Adipose tissue/Plasma; conditions: in vivo
# [24] = AUC in CD1 mouse at 10 mg/kg, po; type: ADME, organism-based; conditions: in vivo
# [25] = biological target: Cannabinoid receptor 1 (Rattus norvegicus) (UniProt P20272); experiment: Displacement of [3H]CP-55,940 from rat brain Cb1 receptor expressed in HEK293 cells at 10 times Ki incubated for 1 hr followed by 5 times membrane washout; type: cell-based
# Mus musculus [26] = experiment: Volume of distribution in CD1 mouse at 10 mg/kg, po; type: ADME, organism-based; conditions: in vivo
# [27] = Half life in simulated gastric fluid; type: ADME
# Mus musculus [28] = experiment: Analgesic activity in CD1 mouse model of thermal-induced nociception assessed as tail withdrawal latency at 1 mg/kg, ip measured after 180 to 360 mins by tail flick test; type: functional, organism-based
# [29] = Half life in CD1 mouse at 2 mg/kg, iv; type: ADME, organism-based; conditions: in vivo
# [30] = AUC in CD1 mouse plasma at 2 mg/kg, iv; type: ADME, organism-based
# Rattus norvegicus [31] = species on record: Rattus norvegicus; conditions: Sprague-Dawley
# Description: Induction of hypothermia in ip dosed Sprague-Dawley rat assessed as decrease in body temperature measured up to 180 mins
# [32] = Ratio of AUC in plasma to urine of CD1 mouse at 10 mg/kg, po; type: ADME, organism-based; conditions: in vivo
# [33] = Ratio of AUC in plasma to spleen of CD1 mouse at 2 mg/kg, iv; type: ADME, organism-based; conditions: in vivo
# Mus musculus [34] = experiment: Analgesic activity in ip dosed CD1 mouse model of thermal-induced nociception assessed as tail withdrawal latency measured after 20 mins by tail flick test; type: functional
# [35] = Ratio of AUC in plasma to fat of CD1 mouse at 10 mg/kg, po; type: ADME, organism-based, Adipose tissue/Plasma; conditions: in vivo
# [36] = Ratio of AUC in plasma to kidney of CD1 mouse at 2 mg/kg, iv; type: ADME, organism-based; conditions: in vivo
# [37] = Tmax in CD1 mouse at 10 mg/kg, po; type: ADME, organism-based; conditions: in vivo
# [38] = AUC in CD1 mouse fat at 10 mg/kg, po; type: ADME, organism-based, Adipose tissue
# [39] = biological target: Cannabinoid receptor 1 (Rattus norvegicus) (UniProt P20272); experiment: Displacement of [3H]CP-55,940 from rat brain Cb1 receptor expressed in HEK293 cells at 10 times Ki measured after 1 hr relative to control; type: cell-based
# [40] = Half life in CD1 mouse at 10 mg/kg, po; type: ADME, organism-based; conditions: in vivo
# [41] = Half life in mouse plasma; type: ADME, cell-free
# [42] = AUC in CD1 mouse urine at 10 mg/kg, po; type: ADME, organism-based
# [43] = AUC in CD1 mouse kidney at 2 mg/kg, iv; type: ADME, organism-based
# [44] = Ratio of AUC in plasma to spleen of CD1 mouse at 10 mg/kg, po; type: ADME, organism-based; conditions: in vivo
# Rattus norvegicus [45] = experiment: Induction of hypothermia in Sprague-Dawley rat assessed as decrease in body temperature at 1 mg/kg, ip measured after 3 to 6 hrs; type: functional, organism-based
# [46] = Half life in human plasma; type: ADME, cell-free
# [47] = AUC in CD1 mouse spleen at 10 mg/kg, po; type: ADME, organism-based
# [48] = Half life in rat liver microsomes; type: ADME, microsome
# [49] = AUC in CD1 mouse brain at 2 mg/kg, iv; type: ADME, organism-based
# [50] = AUC in CD1 mouse at 2 mg/kg, iv; type: ADME, organism-based; conditions: in vivo
# [51] = Half life in human liver microsomes; type: ADME, microsome
# [52] = AUC in CD1 mouse spleen at 2 mg/kg, iv; type: ADME, organism-based
# [53] = Ratio of AUC in plasma to brain of CD1 mouse at 10 mg/kg, po; type: ADME, organism-based; conditions: in vivo
# Sequence of Cannabinoid receptor 2 (Mus musculus, UniProt P47936) (P47936 whole entry): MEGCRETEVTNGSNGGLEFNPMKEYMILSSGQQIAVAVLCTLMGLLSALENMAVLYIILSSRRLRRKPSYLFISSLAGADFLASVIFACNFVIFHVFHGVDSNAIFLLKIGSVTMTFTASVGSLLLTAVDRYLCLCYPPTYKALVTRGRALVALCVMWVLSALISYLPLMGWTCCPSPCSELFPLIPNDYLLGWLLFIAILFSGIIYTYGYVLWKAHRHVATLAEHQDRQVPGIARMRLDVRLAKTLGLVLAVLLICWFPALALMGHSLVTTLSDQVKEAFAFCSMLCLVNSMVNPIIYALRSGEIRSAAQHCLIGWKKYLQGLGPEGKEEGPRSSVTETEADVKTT
# T2 sequence (P34972 whole entry): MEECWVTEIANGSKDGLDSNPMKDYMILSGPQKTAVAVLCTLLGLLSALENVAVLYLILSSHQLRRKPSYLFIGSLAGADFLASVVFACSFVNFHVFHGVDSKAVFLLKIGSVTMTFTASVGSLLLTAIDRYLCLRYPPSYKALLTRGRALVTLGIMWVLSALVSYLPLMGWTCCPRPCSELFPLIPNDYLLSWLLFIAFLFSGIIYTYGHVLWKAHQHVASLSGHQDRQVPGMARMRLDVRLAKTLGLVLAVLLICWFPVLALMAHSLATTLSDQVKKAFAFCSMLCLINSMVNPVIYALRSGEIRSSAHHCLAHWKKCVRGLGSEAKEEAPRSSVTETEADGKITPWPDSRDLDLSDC
# Sequence of Cannabinoid receptor 1 (Rattus norvegicus) (P20272 whole entry): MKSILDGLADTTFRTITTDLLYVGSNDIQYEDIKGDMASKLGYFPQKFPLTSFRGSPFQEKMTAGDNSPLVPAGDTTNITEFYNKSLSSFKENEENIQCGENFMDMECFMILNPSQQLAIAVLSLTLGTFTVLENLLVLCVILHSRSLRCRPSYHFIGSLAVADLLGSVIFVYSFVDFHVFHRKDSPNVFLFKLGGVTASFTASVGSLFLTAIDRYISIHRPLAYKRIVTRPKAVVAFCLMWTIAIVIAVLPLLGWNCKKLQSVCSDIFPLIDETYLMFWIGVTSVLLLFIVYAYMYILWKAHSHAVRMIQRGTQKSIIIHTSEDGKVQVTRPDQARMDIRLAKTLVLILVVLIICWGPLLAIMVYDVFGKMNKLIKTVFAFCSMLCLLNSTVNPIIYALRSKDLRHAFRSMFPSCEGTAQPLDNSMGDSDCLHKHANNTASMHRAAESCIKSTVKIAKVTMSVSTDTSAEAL
# T1 sequence (P20272 whole entry): as above
smiles,measurement,setting,value
CCO/N=C(\C)c1cc(O)c2c(c1)OC(C)(C)[C@H]1CC=C(C)C[C@H]21,Ki,Cannabinoid receptor 1 [1],66.1 nM
same,Ki,Cannabinoid receptor 2 [2],74.8 nM
CC1=CC[C@H]2[C@H](C1)c1c(O)cc(/C(C)=N\OCCCc3ccccc3)cc1OC2(C)C,Ki,Cannabinoid receptor 1 [1],5 nM
same,EC50,Cannabinoid receptor 1 [3]; hek293,Not Active
same,Emax,Cannabinoid receptor 2 [4],98%
same,Ki,Cannabinoid receptor 2 [2],2.8 nM
same,EC50,Cannabinoid receptor 2 [5]; read-out: EC50,1.7 nM
same,Ki,Cannabinoid receptor 2 [6],2.9 nM
CC1=CC[C@H]2[C@H](C1)c1c(O)cc(/C(C)=N\OCCCC#N)cc1OC2(C)C,Ki,Cannabinoid receptor 1 [1],0.3 nM
same,EC50,Cannabinoid receptor 1 [3]; hek293,Not Active
same,Emax,Cannabinoid receptor 2 [4],35%
same,Ki,Cannabinoid receptor 2 [2],0.1 nM
same,EC50,Cannabinoid receptor 2 [5]; read-out: EC50,2 nM
same,Ki,Cannabinoid receptor 2 [6],0.4 nM
CC1=CC[C@H]2[C@H](C1)c1c(O)cc(/C(C)=N/OCCCCF)cc1OC2(C)C,Ki,Cannabinoid receptor 1 [1],4.1 nM
same,EC50,Cannabinoid receptor 1 [3]; read-out: EC50,0.7 nM
same,Emax,[7],39%
same,Ki,Cannabinoid receptor 2 [2],2.5 nM
same,EC50,Cannabinoid receptor 2 [5]; hek293,Not Active
same,Ki,Cannabinoid receptor 2 [6],9.7 nM
CC1=CC[C@H]2[C@H](C1)c1c(O)cc(/C(C)=N/OCCCn3ccnc3)cc1OC2(C)C,Ki,Cannabinoid receptor 1 [1],1.2 nM
same,Ki,Cannabinoid receptor 2 [2],1.5 nM
same,Ki,Cannabinoid receptor 2 [6],3.7 nM
CC1=CC[C@H]2[C@H](C1)c1c(O)cc(/C(C)=N/OCCCC#N)cc1OC2(C)C,half-life,[8],13 min
same,Ki,Cannabinoid receptor 1 [1],0.9 nM
same,AUC,[9],154 ng·h/mL
same,Activity,Rattus norvegicus [10],inactive
same,Ratio AUC,[11],0.49
same,Ratio AUC,[12],2.48
same,AUC,[13],580 ng·h/mL
same,AUC,[14],5390 ng·h/mL
same,Ratio AUC,[15],2.06
same,EC50,Cannabinoid receptor 1 [3]; read-out: EC50,4.4 nM
same,Vd,[16],2.16 L/kg
same,Ratio AUC,[17],0.64
same,Activity,Rattus norvegicus [18],inactive
same,AUC,[19],257 ng·h/mL
same,AUC,[20],308 ng·h/mL
same,AUC,[21],124 ng·h/mL
same,half-life,[22],> 60 min
same,Ratio AUC,[23],5.98
same,AUC,[24],1240 ng·h/mL
same,inhibition,[25],23%
same,Emax,[7],51%
same,Vd,Mus musculus [26],68.042 L/kg
same,half-life,[27],> 60 min
same,Activity,Mus musculus [28],Active
same,Emax,Cannabinoid receptor 2 [4],47%
same,half-life,[29],47.3 min
same,AUC,[30],900 ng·h/mL
same,deltaT,Rattus norvegicus [31],4.5 to 7.7 °C
same,Ratio AUC,[32],0.09
same,Ki,Cannabinoid receptor 2 [2],2.6 nM
same,Ratio AUC,[33],1.06
same,Activity,Mus musculus [34],Dose-dependent effect
same,ED50,Mus musculus [34],1.42 mg/kg
same,EC50,Cannabinoid receptor 2 [5]; read-out: EC50,12 nM
same,Ratio AUC,[35],5.72
same,Ratio AUC,[36],0.99
same,Tmax,[37],60 min
same,AUC,[38],710 ng·h/mL
same,Ki,Cannabinoid receptor 2 [6],1.3 nM
same,inhibition,[39],44%
same,half-life,[40],35.2 min
same,half-life,[41],> 60 min
same,AUC,[42],11.3 ng·h/mL
same,AUC,[43],890 ng·h/mL
same,Ratio AUC,[44],0.86
same,Activity,Rattus norvegicus [45],Active
same,half-life,[46],> 60 min
same,AUC,[47],107 ng·h/mL
same,half-life,[48],12 min
same,AUC,[49],443 ng·h/mL
same,AUC,[50],1060 ng·h/mL
same,half-life,[51],9 min
same,AUC,[52],957 ng·h/mL
same,Ratio AUC,[53],1.24
CCCC(C)O/N=C(\C)c1cc(O)c2c(c1)OC(C)(C)[C@H]1CC=C(C)C[C@H]21 (mixture of isomers),Ki,Cannabinoid receptor 1 [1],2 nM
same,EC50,Cannabinoid receptor 1 [3]; read-out: EC50,22.4 nM
same,Emax,[7],48%
same,Emax,Cannabinoid receptor 2 [4],411%
same,Ki,Cannabinoid receptor 2 [2],43.6 nM
same,EC50,Cannabinoid receptor 2 [5]; read-out: EC50,41.3 nM
same,Ki,Cannabinoid receptor 2 [6],24 nM
CC1=CC[C@H]2[C@H](C1)c1c(O)cc(/C(C)=N/OCCOc3ccccc3)cc1OC2(C)C,Ki,Cannabinoid receptor 1 [1],11.4 nM
same,EC50,Cannabinoid receptor 1 [3]; read-out: EC50,0.9 nM
same,Emax,[7],56%
same,Emax,Cannabinoid receptor 2 [4],99%
same,Ki,Cannabinoid receptor 2 [2],3.7 nM
same,EC50,Cannabinoid receptor 2 [5]; read-out: EC50,49.6 nM
same,Ki,Cannabinoid receptor 2 [6],6.2 nM
CC1=CC[C@H]2[C@H](C1)c1c(O)cc(/C(C)=N/OCCN3CCOCC3)cc1OC2(C)C,Ki,Cannabinoid receptor 1 [1],7 nM
same,Ki,Cannabinoid receptor 2 [2],1.8 nM
same,Ki,Cannabinoid receptor 2 [6],0.7 nM
